Legend:
ReNcell VM (RVM) cells [1] = conditions: PrestoBlue, N = 3
[2] = test system: MAP2 expression in ReNcell VM; experiment: RVM differentiation, quantitative immunocytochemistry for MAP2; type: cell-based, human; conditions: 0.1 µM, compound treatment for the initial one week, four weeks of differentiation, N = 3
Experimental: (§1) The laminin solution was removed prior to cell seeding. 2 × 10^4 ReNcell VM between passages 8 and 10 were seeded in the 8-well chamber slides with 400 µL of proliferation media. The cells were grown to 70% confluency. Differentiation for RVM is initiated by growth factor withdrawal or in combination with RA or RA-PepB3. The media were replaced every 48–72 h for the duration of the differentiation. Compound treatment was only performed for one week, at which point all cells were commonly grown in growth factor withdrawal media.
(§2) Cells were fixed with 4% PFA at room temperature for 15 min. After rinsing with PBS, blocking and permeabilization were done simultaneously using 5% donkey serum and 0.3% Triton-X 100 in PBS for 30 min at room temperature. The cells were rinsed with PBS and primary antibodies were applied for 2 h at room temperature. The cells were rinsed again with PBS and secondary antibodies were applied for 1 h at room temperature. […] The cells positive for β-III tubulin and MAP2 were counted using ImageJ. […] The fluorescence channels were separated, background removed, and contrast enhanced. The number of DAPI positive cells were counted using an in-house coded nuclei counter. […] The channels were then re-merged and the cells positive for β-III tubulin and MAP2 were manually counted. […]

[3] = test system: β-III tubulin expression in ReNcell VM; experiment: RVM differentiation, quantitative immunocytochemistry for β-III tubulin; type: cell-based, human; conditions: 0.1 µM, N = 3
Experimental: as §1, §2

[4] = design: method as in PMID 1898007; conditions: reported solubility limit in water; cited from earlier work
Source text: Neurogenesis is an important biological process under intense investigation. Neurodegenerative diseases such as Alzheimer’s and Parkinson’s are devastating due to the fact that neurons cannot be replaced in the diseased areas of the brain [1]. […] To exert its effects ... || Retinoic acid is a potent morphogen used to differentiate stem cells towards the neural lineage.

[5] = test system: undifferentiated RVM cells cultured in Matrigel; conditions: microarray chip, read-out: viability IC50; cited from earlier work
ReNcell VM (RVM) cells [6] = experiment: 24 h cytotoxicity, CCK-8 (WST-8) or PrestoBlue; type: cell-based, human; conditions: 24 h treatment
Experimental: Sterile peptide solutions for cytotoxicity testing were prepared from stock by diluting with deionized (DI) water and filtering through a 0.22 µm polytetrafluoroethylene (PTFE) membrane. Because of aggregations and decreased solubility in water at high concentrations, a standard curve was used to determine the concentrations of the filtered peptides. Briefly, 5 µL of sample or serial diluted peptide stocks with known concentrations prepared from weighed powder, were aliquoted into wells of a 96-well half area plate. Then, 45 µL of methanol was added to each well to fully solubilize all the peptides. Absorbance measurements at 554 nm (650 nm as reference) were taken on a Tecan infinite M200 Pro plate reader (Tecan Group, Männedorf, Switzerland). After the calculation of stock concentrations, peptides were further diluted with cell culture media for treatment.
There were 10,000 ReNcell VM cells (passages below 15) that were seeded in each well, with 100 µL of RVM cell culture media supplemented with the growth factors bFGF and EGF.
For the PepB series (Figure 1 and Table 1) testing, the RVM cells were incubated with peptides for 24 h. […] After incubation for 1 h, for WST-8, a Tecan infinite M200 Pro plate reader was utilized to acquire absorbance measurements at 450 nm (650 nm as reference) and normalized to the untreated controls.

CC1=C(/C=C/C(C)=C/C=C/C(C)=C/C(=O)O)C(C)(C)CCC1 [RA, All-Trans-Retinoic Acid]
proliferation versus controls after 24 h (ReNcell VM (RVM) cells [1]; 5 and 10 µM RA): significantly less proliferation than the controls
proliferation versus controls by day three (ReNcell VM (RVM) cells [1]; all tested concentrations of RA, medium refreshed every 48 h): significantly reduced rates of proliferation
MAP2 expression, fold versus control [2]: 2.5 fold
β-III tubulin expression, fold versus growth factor withdrawal control ([3]; compound treatment for the initial one week, four weeks of differentiation): 2 fold
β-III tubulin expression, fold versus no growth factor control ([3]; one week of differentiation): 1.5 fold
solubility in aqueous environments [4]: < 0.2 µM
IC50 [5]: 0.74 µM
fraction of RVM cells killed (ReNcell VM (RVM) cells [6]; 10 µM, PrestoBlue or Cell Counting Kit-8, N = 3): more than 50%
concentration at which RVM cells started significantly dying (ReNcell VM (RVM) cells [6]; 0–10 µM tested, N = 3): 5 µM

Source: PMC6163344, “A Novel Cell Penetrating Peptide for the Differentiation of Human Neural Stem Cells” (Biomolecules, 2018)
